Measured values: patent publication US11351209B2 (priority 2016, dated 2022)
Entries after “also recorded” stand apart in the source; their conditions may differ.

Columns and labels:
CT26 flank tumours = test: Efficacy study, oral IC87114 and intravenous VVL15, CT26 flank tumours; assay type: in vivo, BALB/c mice; details: IC87114 50 mg kg^−1 oral gavage three hours before intravenous 1×10^8 PFU VVL15 (Group D), days 8, 11, 13, vs all other groups
orthotopic 4T1 tumours = test: Efficacy study, oral IC87114 and intravenous VVL15, orthotopic 4T1 tumours; assay type: in vivo, BALB/c mice; details: 4T1 orthotopic; IC87114 75 mg kg^−1 oral gavage three hours before intravenous 1×10^8 PFU VVL15 (Group D), days 12, 15, 17; vs all other groups

Cc1ccccc1-n1c(Cn2cnc3c(N)ncnc32)nc2cccc(C)c2c1=O [IC87114, 2-[(6-amino-9H-purin-9-yl)methyl]-5-methyl-3-(2-methylphenyl)-4(3H)-quinazolinone]
tumour burden (CT26 flank tumours): significantly reduces the tumour burden; also recorded: significantly less tumour burden; also recorded: reduced tumour burden
tumour burden (orthotopic 4T1 tumours): significantly reduces the tumour burden; also recorded: significantly less tumour burden; also recorded: reduced tumour burden
